The record followed here is patent US6730691B1, “Uses of alpha adrenergic blocking agents” (priority 2000, dated 2004).

In data set [1] the test system is subjects who had undergone surgical implantation of a refractive intraocular lens, experiencing photophobia, glare, secondary images and haloing. Nature of the data set: Topical thymoxamine ophthalmic solution in subjects after implantation of a refractive intraocular lens. The data set is classed as in vivo, human. As to conditions: three subjects. As to the method:
A suitable ophthalmic solution was prepared containing about 0.5% by weight thymoxamine by the Moorfields Eye Hospital, London, England having the following composition: Applicant believes that the aqueous ophthalmic solution was prepared by dissolving the sodium acetate, boric acid and phenylmercuric nitrate in most of the purified water. Dissolution was promoted by heating the solution. Upon cooling the solution to room temperature, the thymoxamine hydrochloride was added and was dissolved without further heating. The remainder of the purified water was then added to reach a final volume of 100 ml. Sterilization of the solution was achieved by filtering it through a sterilizing filter. Three subjects, each of whom had undergone surgical implantation of a refractive intraocular lens, were selected for study. Each of the three subjects complained of experiencing photophobia, glare, secondary images and haloing, especially at night. Each of the three subjects received an approximately one drop dose twice daily of an ophthalmic solution containing 0.5% by weight of thymoxamine. […] Each of the subjects continued application of approximately a one drop dose on an as needed basis for a period of one month.

For data set [2], the system named is patients who had undergone radial keratotomy and who each experienced glare and halos. Briefly: Topical thymoxamine ophthalmic solution in patients after radial keratotomy. Format: in vivo, human. As to conditions: two radial keratotomy patients; similarly treated with 0.5% by weight solution.

Counter-ions that a name gives are not always drawn.

For the compound `CC(=O)Oc1cc(C(C)C)c(OCCN(C)C)cc1C` [thymoxamine, thymoxamine hydrochloride], in data set [1] (0.5% by weight solution, one day period), the “induced myopia or headaches” value is recorded as “without experiencing induced myopia or headaches”. Moreover, the “irritation from the topical application to the eye” value in data set [1] (after administration of a dosage of 0.5% by weight solution) was “mild irritation”. For the same compound, the “undesirable visual anomalies once treatment was terminated” value in data set [1] (after termination of treatment) is on record as “returned to each of the three subjects”. In addition, the “undesirable visual anomaly during the usage period” value in data set [1] (approximately one drop as needed for one month) is “None of the subjects have experienced the previously complained of undesirable visual anomaly”. Besides, the “previously complained of undesirable visual anomaly (photophobia, glare, secondary images, haloing)” value in data set [1] (approximately one drop twice daily of 0.5% by weight solution, one day period) is reported as “elimination of the previously complained of undesirable visual anomaly”. For the same compound, the “glare and halos after treatment” value in data set [2] is given as “comparable results”.
